Series [1] is described as follows: Metabolic stability of the compound in mouse liver microsomes assessed as parent compound remaining measured after 30 mins. The class given is ADME, Microsome. The settings on record: for remaining at 0.5 h: liver microsomes, read-out: Stabilty.
The nature of series [2]: Metabolic stability of the compound in rat liver microsomes assessed as parent compound remaining measured after 30 mins. In kind it is ADME, Microsome. The conditions noted are these: read-out: Stabilty.
Series [3] has as its system MDA-MB-231. In words: Antiproliferative activity against human MDA-MB-231 cells. In kind it is functional, cell-based.
The species entered for series [4] is Homo sapiens. In words: Selectivity ratio of IC50 for inhibition of eIF4A (unknown origin) assessed as inhibition of translation of RNA featuring short 5'-UTR of tubulin to IC50 for inhibition of eIF4A (unknown origin) assessed as inhibition of translation of RNA featuring highly structured 5'-UTR of c-Myc.
Series [5] in a line: Metabolic stability of the compound in human liver microsomes assessed as parent compound remaining measured after 30 mins. In kind it is ADME, Microsome. The settings on record: read-out: Stabilty. For orientation: Liver microsomes are vesicles of endoplasmic reticulum, rich in cytochrome P450 enzymes.
Series [6] has as its target hERG (KCNH2) (Homo sapiens, UniProt Q12809). In words: Inhibition of human ERG at 10 uM by automated patch method relative to control.
In series [7] the target is T1, Eukaryotic initiation factor 4A-I (Homo sapiens, UniProt P60842). Put plainly: Inhibition of eIF4A (unknown origin) assessed as inhibition of translation of RNA featuring short 5'-UTR of tubulin.
The target in series [8] is T1, Eukaryotic initiation factor 4A-I. In words: Inhibition of eIF4A (unknown origin) assessed as inhibition of translation of RNA featuring highly structured 5'-UTR of c-Myc.
A short description of series [9]: Permeability of the compound across apical to basolateral side in human Caco-2 cells. The class given is ADME, cell-based. The settings on record: read-out: permeability. For orientation: Caco-2 cells form a polarised layer with tight junctions and transporters.
A short description of series [10]: Efflux ratio of permeability in human Caco-2 cells. The class given is ADME, cell-based.
Series [11] has as its system MDA-MB-231. In words: Antiproliferative activity against human MDA-MB-231 cells assessed as inhibition of cell viability incubated for 72 hrs by CellTiter-Glo assay. In kind it is functional, cell-based. The settings on record: MDA-MB-231, 72 h. In general terms: Cellular ATP, detected with luciferase, serves as a proxy for viable cell number.

Molecules are shown by their SMILES.

We go through 13 compounds from ChEMBL document CHEMBL4834481, “1-Aminomethyl SAR in a novel series of flavagline-inspired eIF4A inhibitors: Effects of amine substitution on cell potency and in vitro PK properties” (Bioorg Med Chem Lett, 2021).

T1 sequence (P60842 whole entry): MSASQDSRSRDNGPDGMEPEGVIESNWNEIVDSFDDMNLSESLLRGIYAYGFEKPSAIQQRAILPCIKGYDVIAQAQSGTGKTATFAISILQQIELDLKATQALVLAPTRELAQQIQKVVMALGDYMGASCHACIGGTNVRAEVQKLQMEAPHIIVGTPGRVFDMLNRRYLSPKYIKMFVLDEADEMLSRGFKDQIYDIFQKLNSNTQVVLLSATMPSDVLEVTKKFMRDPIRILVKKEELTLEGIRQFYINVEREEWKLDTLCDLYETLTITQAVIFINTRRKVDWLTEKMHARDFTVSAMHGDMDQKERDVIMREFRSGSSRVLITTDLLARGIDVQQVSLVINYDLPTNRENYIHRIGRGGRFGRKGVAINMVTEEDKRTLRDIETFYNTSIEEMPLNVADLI
Sequence of hERG (KCNH2) (Q12809 whole entry): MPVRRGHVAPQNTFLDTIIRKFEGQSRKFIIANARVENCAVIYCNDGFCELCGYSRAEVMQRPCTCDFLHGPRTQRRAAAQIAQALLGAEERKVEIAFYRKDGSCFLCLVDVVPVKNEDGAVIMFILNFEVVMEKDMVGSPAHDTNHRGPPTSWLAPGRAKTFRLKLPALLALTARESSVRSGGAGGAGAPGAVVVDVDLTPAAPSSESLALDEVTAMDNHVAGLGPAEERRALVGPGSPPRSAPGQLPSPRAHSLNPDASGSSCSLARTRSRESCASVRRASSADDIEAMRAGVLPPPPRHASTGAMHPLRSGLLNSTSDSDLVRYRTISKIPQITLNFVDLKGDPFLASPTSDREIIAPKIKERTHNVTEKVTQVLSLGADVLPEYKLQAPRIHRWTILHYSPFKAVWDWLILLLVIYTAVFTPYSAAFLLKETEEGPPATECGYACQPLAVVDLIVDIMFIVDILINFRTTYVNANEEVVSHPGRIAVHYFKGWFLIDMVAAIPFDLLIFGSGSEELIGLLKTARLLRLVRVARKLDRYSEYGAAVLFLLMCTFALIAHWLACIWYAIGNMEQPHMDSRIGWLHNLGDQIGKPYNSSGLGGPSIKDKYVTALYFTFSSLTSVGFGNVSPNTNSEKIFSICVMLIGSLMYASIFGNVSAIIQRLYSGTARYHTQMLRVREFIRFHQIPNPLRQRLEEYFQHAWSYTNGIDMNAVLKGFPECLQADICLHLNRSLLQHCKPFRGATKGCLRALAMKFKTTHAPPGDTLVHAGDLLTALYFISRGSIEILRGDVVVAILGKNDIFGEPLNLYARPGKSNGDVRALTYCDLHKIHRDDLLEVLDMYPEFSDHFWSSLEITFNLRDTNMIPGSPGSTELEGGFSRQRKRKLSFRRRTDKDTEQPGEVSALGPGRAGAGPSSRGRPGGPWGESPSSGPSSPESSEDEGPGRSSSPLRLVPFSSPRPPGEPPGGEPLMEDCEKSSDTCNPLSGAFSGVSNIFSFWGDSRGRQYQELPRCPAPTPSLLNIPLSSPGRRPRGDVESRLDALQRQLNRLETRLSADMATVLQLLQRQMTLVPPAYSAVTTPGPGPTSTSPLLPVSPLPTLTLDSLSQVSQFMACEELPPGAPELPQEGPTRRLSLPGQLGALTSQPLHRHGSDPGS

`COc1cncc2c1[C@]1(O)[C@@H](CN3CCOCC3)[C@H](CO)[C@@H](c3ccccc3)[C@]1(c1ccc(Br)cc1)O2` (racemic): the remaining at 0.5 h was found to be 1% in series [1], 0% in [2] and 6% in [5]. In series [3], this compound showed an EC50 of 39 nM. Besides, the Ratio IC50 in [4] worked out at 3.2. This compound also came in with an inhibition at 10 µM in [6] of 12%. The values for the IC50 in [7] and in series [8] were 32 nM and 10 nM, respectively.
As to `COc1cncc2c1[C@]1(O)[C@@H](CN)C[C@@H](c3ccccc3)[C@]1(c1ccc(C#N)cc1)O2` (racemic), the remaining at 0.5 h in series [1] stood at 108%; in series [2], 85%; in [5], 102%. This compound gave an EC50 in series [3] of 11 nM. For the same compound, the Ratio IC50 in [4] was 3.9. In series [9], the Papp A→B was 0.13 ×10⁻⁶ cm/s. In [6], the inhibition at 10 µM is 54%. In series [10], the efflux ratio came to 58. Besides, the IC50 is 22 nM in series [7] and 5.6 nM in [8].
On to `COc1cncc2c1[C@]1(O)[C@@H](CNC3COC3)[C@H](CO)[C@@H](c3ccccc3)[C@]1(c1ccc(Br)cc1)O2` (racemic), for which the EC50 in series [3] was determined as 8 nM. The Ratio IC50 in [4] was 4.8. Further, the IC50 in [7] was determined as 11 nM; in series [8], 2.3 nM.
For `COc1cncc2c1[C@]1(O)[C@@H](CNCC(F)F)[C@H](CO)[C@@H](c3ccccc3)[C@]1(c1ccc(C#N)cc1)O2` (racemic), the remaining at 0.5 h in series [1] came out at 1%; in series [2] it was 0%; in series [5], 19%. In addition, the concentration giving a half-maximal response (EC50) in series [3] was 21 nM. Besides, in series [9], the Papp A→B amounted to 0.82 ×10⁻⁶ cm/s. In series [6], this compound registered an inhibition at 10 µM of 27%. Also, the efflux ratio in series [10] was 6.7.
For `COc1cncc2c1[C@]1(O)[C@@H](CNCc3ccnn3C)[C@H](CO)[C@@H](c3ccccc3)[C@]1(c1ccc(C#N)cc1)O2` (racemic), the values for the remaining at 0.5 h in series [1], in [2] and in series [5] were 1%, 2% and 1%, respectively. In addition, a half-maximal effect in series [3] (EC50) was put at 38 nM. Moreover, the Papp A→B in [9] was determined as 0.19 ×10⁻⁶ cm/s. The efflux ratio in series [10] is 76.
Consider `COc1cncc2c1[C@]1(O)[C@@H](CN)C[C@@H](c3ccccc3)[C@]1(c1ccc(Br)cc1)O2` (racemic), for which, in series [1] (microsomes, 0.5 h), the Stabilty amounted to 123%. The values for the remaining at 0.5 h in series [2] and in series [5] were 58% and 99%, respectively. In series [3], the EC50 was found to be 15 nM. For the same compound, the Ratio IC50 in series [4] turned out to be 4.2. In addition, in series [9], the Papp A→B was found to be 0.43 ×10⁻⁶ cm/s. For the same compound, the efflux ratio in series [10] turned out to be 13. Further, the IC50 was 21 nM in series [7] and 5 nM in series [8].
Take `COc1cncc2c1[C@]1(O)[C@@H](CN3CC4(COC4)C3)[C@H](CO)[C@@H](c3ccccc3)[C@]1(c1ccc(C#N)cc1)O2` (racemic): the remaining at 0.5 h in series [1] turned out to be 67%; in series [2], 48%; in series [5], 92%. This compound also showed an EC50 in [3] of 19 nM. Further, the Papp A→B in series [9] amounted to 0.19 ×10⁻⁶ cm/s. In addition, the efflux ratio in series [10] was 86.
Turning to `COc1cncc2c1[C@]1(O)[C@@H](CN(C)C)[C@H](CO)[C@@H](c3ccccc3)[C@]1(c1ccc(C#N)cc1)O2` (racemic), the remaining at 0.5 h was determined as 67% in series [1], 61% in series [2] and 77% in series [5]. Moreover, the EC50 in series [3] came out at 8 nM. In addition, in series [9], the Papp A→B is 0.4 ×10⁻⁶ cm/s. For the same compound, the inhibition at 10 µM in [6] amounted to 79%. The efflux ratio in series [10] was 33.
`N#Cc1ccc([C@@]23Oc4cc(Cl)cnc4[C@]2(O)[C@@H](CN)C[C@H]3c2ccccc2)cc1` (racemic): the EC50 in series [11] was found to be 28 nM.
For the compound `COc1cncc2c1[C@]1(O)[C@@H](CN)[C@H](CO)[C@@H](c3ccccc3)[C@]1(c1ccc(Br)cc1)O2` (racemic), the remaining at 0.5 h was 107% in series [1], 95% in [2] and 102% in series [5]. This compound had an EC50 in series [3] of 48 nM. In addition, the Ratio IC50 in series [4] came to 3.6. Besides, the Papp A→B in series [9] came to 0.04 ×10⁻⁶ cm/s. The inhibition at 10 µM in series [6] stood at 37%. For the same compound, the efflux ratio in series [10] amounted to 61. For the same compound, the IC50 in [7] came to 89 nM; in series [8], 25 nM.
As to `COc1cncc2c1[C@]1(O)[C@@H](CN3CCOCC3)[C@H](CO)[C@@H](c3ccccc3)[C@]1(c1ccc(C#N)cc1)O2` (racemic), the remaining at 0.5 h in series [1] amounted to 41%; in series [2], 27%; in series [5], 51%. Also, the EC50 in [3] was 81 nM. Further, the Papp A→B in series [9] was found to be 2.2 ×10⁻⁶ cm/s. Further, the inhibition at 10 µM in series [6] is < 10%. Besides, the efflux ratio in [10] is 7.
As to `COc1cncc2c1[C@]1(O)[C@@H](CNC3COC3)[C@H](CO)[C@@H](c3ccccc3)[C@]1(c1ccc(C#N)cc1)O2` (racemic), the remaining at 0.5 h in [1] amounted to 24%; in [2], 18%; in series [5] it was 61%. Further, the 50% effective concentration (EC50) in series [3] amounted to 29 nM. For the same compound, the Papp A→B in series [9] is 0.73 ×10⁻⁶ cm/s. In series [6], the inhibition at 10 µM is < 10%. In addition, in series [10], the efflux ratio is 12.
Consider `COc1cncc2c1[C@]1(O)[C@@H](CN)[C@H](CO)[C@@H](c3ccccc3)[C@]1(c1ccc(C#N)cc1)O2` (racemic), for which the remaining at 0.5 h amounted to 83% in [1], 97% in [2] and 95% in series [5]. This compound also displayed an EC50 in series [3] of 106 nM. Further, in series [9], the Papp A→B was < 0.07 ×10⁻⁶ cm/s. Also, the inhibition at 10 µM in [6] is < 10%. Besides, in [10], the efflux ratio is > 4.

Usually EC50 stands for the concentration giving half of the maximal effect. A word on the inhibition: it is how much of the control response was suppressed. As usually defined, the IC50 is the point on the concentration scale where inhibition reaches its midpoint. What is called efflux ratio is the permeability from basolateral to apical divided by that in the opposite direction, in the common usage.
